This is an account of results in PubChem BioAssay (NCI).

The structures appear in SMILES notation.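 1) Cells in 96-well plates. 2) Compound, 48 h, 5 concentrations. 3) Linear interpolation between surrounding doses. 4) Unreached endpoint = highest concentration. The concentration for 50% growth inhibition is given as GI50. The concentration for full growth arrest is given as TGI.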 Some results are limits rather than exact numbers.

Holding throughout (test): NCI-60 cell line screen, 48 h
The test system of assay [1] is EKVX NSCLC.
In assay [2] the test system is HT29 colon.
For assay [3], the system named is IGROV1 ovarian.
Assay [4] has as its system NCI-H226 lung.
For assay [5], the system named is NCI/ADR-RES ovarian.
For assay [6], the system named is OVCAR-4 ovarian.
Assay [7] relates to SNB-19 CNS.
Assay [8] has as its system SR leukemia.

As to `O=C1CC(c2ccc(N3CCOCC3)cc2)(c2ccsc2)NC(=O)C1Sc1ccccc1Cl` (centres undefined), the GI50 is over 100 µM in assay [1]; 46.4 µM in assay [2]; 22.4 µM in assay [3]; over 100 µM in assay [4]; 46.7 µM in assay [5]; over 100 µM in assay [6]. Also, the GI50 in assay [7] was 30.3 µM; in assay [8], 4.4 µM. Further, the TGI in assay [1], in assay [2], in assay [3], in assay [4], in assay [5] and in assay [6] was over 100 µM in each case. Moreover, the TGI in assay [7] and in assay [8] was over 100 µM each time.

With `CC[C@@H](C(=O)[C@@H](C)[C@@H](O)[C@H](C)[C@@H]1O[C@@H]([C@@H](CC)C(=O)O)CC[C@@H]1C)C1O[C@]2(C=CC(=O)[C@]3(CC[C@@](C)([C@H]4CC[C@](O)(CC)[C@H](C)O4)O3)O2)[C@H](C)C[C@@H]1C` (some centres undefined), the GI50 in assay [1] was 0.538 µM; in assay [2] it was 0.279 µM; in assay [3], 2.44 µM; in assay [4] it was 1.06 µM; in assay [5], 0.766 µM; in assay [6] it was 1.1 µM. The GI50 is 0.4 µM in assay [7] and 0.0969 µM in assay [8]. Besides, the TGI in assay [1] worked out at 18.7 µM; in assay [2], 16.2 µM; in assay [3], 20.4 µM; in assay [4], 9.77 µM; in assay [5], 21.1 µM; in assay [6], 17.9 µM. Also, in assay [7], the TGI was 6.96 µM.

With `CC(C)=CCC[C@H](C)[C@@H]1CC[C@]2(C)C3CC[C@]4(OC4(C)C)C(CCCO)[C@]3(C)CC[C@@]12C` (some centres undefined), the GI50 was 20.7 µM in assay [1]; 34 µM in assay [2]; 81.7 µM in assay [3]; 10 µM in assay [4]; 23.5 µM in assay [5]; 25.3 µM in assay [6]. For the same molecule, the GI50 in assay [7] is 24 µM; in assay [8], 11.2 µM. In addition, the TGI in assay [1] is 50.7 µM; in assay [2], over 100 µM; in assay [3] it was over 100 µM; in assay [4], 57.4 µM; in assay [5], 59.2 µM; in assay [6], 59 µM. The TGI in assay [7] came to 62.3 µM; in assay [8], 28.1 µM.

`C1=Cc2ccccc2Nc2ccccc21`: the GI50 in assay [1] was 50 µM; in assay [2], over 100 µM; in assay [3], over 100 µM; in assay [4], over 100 µM; in assay [5] it was over 100 µM; in assay [6], over 100 µM. Besides, the GI50 in assay [7] and in assay [8] was over 100 µM throughout. Besides, the TGI in assay [1], in assay [2], in assay [3], in assay [4], in assay [5] and in assay [6] was over 100 µM each time. The TGI in assay [7] and in assay [8] was over 100 µM in each case.

Turning to `COc1cc(C(=O)c2ccc3c(c2)OCO3)cc(OC)c1OC`, the GI50 in assay [1] was 3.77 µM; in assay [2], 0.502 µM; in assay [3] it was 1.45 µM; in assay [4], 8.76 µM; in assay [5], 0.987 µM; in assay [6], 5.14 µM. Further, the GI50 was 5.07 µM in assay [7] and 0.348 µM in assay [8]. Also, the TGI in assay [1] is over 100 µM; in assay [2] it was 15.5 µM; in assay [3], over 45.5 µM; in assay [4] it was over 100 µM; in assay [5], over 100 µM; in assay [6], over 100 µM. For the same molecule, the TGI in assay [7] was over 100 µM; in assay [8] it was over 87.7 µM.

Consider `COc1ccccc1OCC(=O)Nc1sc2c(c1C(N)=O)CCC2`, for which the GI50 in assay [1] is over 100 µM; in assay [2], over 100 µM; in assay [3], over 100 µM; in assay [4], 44.3 µM; in assay [5], over 100 µM; in assay [6] it was over 100 µM. The GI50 in assay [7] and in assay [8] was over 100 µM each time. Further, the TGI in assay [1], in assay [2], in assay [3], in assay [4], in assay [5] and in assay [6] was over 100 µM throughout. Besides, the TGI in assay [7] and in assay [8] was over 100 µM in each case.

As to `O=C(Nc1ccccc1O)c1cccc(NC2=C(Cl)C(=O)N(Cc3ccccc3)C2=O)c1`, the GI50 is 15.1 µM in assay [1]; 7.05 µM in assay [2]; 2.87 µM in assay [3]; 3.7 µM in assay [4]; 3.35 µM in assay [5]; 10.3 µM in assay [6]. Moreover, the GI50 in assay [7] was 13.9 µM; in assay [8] it was 0.583 µM. For the same molecule, the TGI was 28.8 µM in assay [1]; over 100 µM in assay [2]; 8.65 µM in assay [3]; 11.5 µM in assay [4]; 11.8 µM in assay [5]; 45.4 µM in assay [6]. Also, the TGI worked out at 37.5 µM in assay [7] and 2.57 µM in assay [8].

On to `Cn1cncc1[C@@](N)(c1ccc(Cl)cc1)c1ccc2c(c1)c(-c1cccc(Cl)c1)cc(=O)n2C`, for which the GI50 in assay [1] is 2.22 µM; in assay [2], 1.27 µM; in assay [3] it was 2.33 µM; in assay [4], 5.98 µM; in assay [5] it was 2.54 µM; in assay [6], 2.14 µM. Moreover, the GI50 in assay [7] is 5.61 µM; in assay [8] it was 0.165 µM. Further, the TGI in assay [1] stood at 13.1 µM; in assay [2], 6.24 µM; in assay [3] it was 13 µM; in assay [4], 21.5 µM; in assay [5] it was 12 µM; in assay [6], 14.7 µM. Further, the TGI stood at 19.7 µM in assay [7] and 4.32 µM in assay [8].

Take `COc1ccc(CCN2C(=O)C=CC2=O)cc1OC`: the TGI in assay [1] worked out at 41.1 µM; in assay [2], 13.7 µM; in assay [3], 36.7 µM; in assay [4], 13 µM; in assay [5], 74.5 µM; in assay [6], 5.07 µM. The TGI in assay [7] came out at 37.2 µM; in assay [8] it was 6.7 µM.

Consider `c1ccc(Cn2cc3c(c2-c2ccccc2)CCc2cnoc2-3)cc1`, for which the GI50 is 5.53 µM in assay [1]; 3.11 µM in assay [2]; 5.51 µM in assay [3]; 14.7 µM in assay [4]; 2.75 µM in assay [5]; 10.7 µM in assay [6]. Also, the GI50 in assay [7] was 4.24 µM; in assay [8], 1.96 µM. Further, the TGI in assay [1] is over 100 µM; in assay [2], 33.4 µM; in assay [3] it was over 100 µM; in assay [4] it was over 100 µM; in assay [5], 9.53 µM; in assay [6] it was over 100 µM. In addition, the TGI in assay [7] is over 100 µM; in assay [8], 9.28 µM.

Turning to `CCOc1cccc(/C=N/NC(=O)c2ccc(Nc3ccnc(C(F)(F)F)c3)cc2)c1O`, the GI50 was 1.21 µM in assay [1]; 4.38 µM in assay [2]; 2.32 µM in assay [3]; 2.08 µM in assay [4]; 3.62 µM in assay [5]; 0.755 µM in assay [6]. Further, the GI50 was 4.69 µM in assay [7] and 0.236 µM in assay [8]. The TGI in assay [1] is over 81.8 µM; in assay [2], over 73.5 µM; in assay [3], over 23.9 µM; in assay [4] it was 22.5 µM; in assay [5], over 63.2 µM; in assay [6], over 100 µM. In addition, the TGI in assay [7] and in assay [8] was over 100 µM each time.

Regarding `COc1cc(NS(C)(=O)=O)ccc1Nc1c2ccc(Cl)cc2nc2c(OC)cccc12`, the GI50 in assay [1] was 6.2 µM; in assay [2] it was 0.142 µM; in assay [3] it was 0.331 µM; in assay [4] it was 0.0806 µM; in assay [5], 1.35 µM; in assay [6], 2.32 µM. For the same molecule, the GI50 in assay [7] was 0.135 µM; in assay [8], under 0.0109 µM. In addition, the TGI is 26.7 µM in assay [1]; 1.85 µM in assay [2]; 6.89 µM in assay [3]; 0.83 µM in assay [4]; over 49.4 µM in assay [5]; 16.7 µM in assay [6]. The TGI was 22.3 µM in assay [7] and 10.2 µM in assay [8].

With `CC(=O)N1N=C2/C(=C/c3ccccc3)CC(C)CC2C1c1ccccc1` (centres undefined), the GI50 in assay [1] is 11.9 µM; in assay [2], 12.9 µM; in assay [3] it was 12.1 µM; in assay [4], 15.3 µM; in assay [5] it was 12.5 µM; in assay [6], 10.8 µM. Also, the GI50 in assay [7] is 14.5 µM; in assay [8], 10.7 µM. Besides, the TGI was found to be 27.3 µM in assay [1]; 29.9 µM in assay [2]; 41.9 µM in assay [3]; 34 µM in assay [4]; 28.8 µM in assay [5]; 25.2 µM in assay [6]. The TGI in assay [7] came to 30.1 µM; in assay [8], 33 µM.
